Test results: the NIST ThermoML archive (doi:10.1021/je030141r)
Numbers after ± are expanded uncertainties.

Key:
[1] = Liquid; for mass density: 101.33 kPa
[2] = refractive index (Na D-line) (dimensionless); settings: 101.33 kPa, Liquid, Standard Abbe refractometry

Structure (SMILES) | mass density ([1]; 298.15 K) | refractive index ([2]; 298.15 K) | further results
CC(Cl)(Cl)Cl [1,1,1-trichloroethane] | 1329.9 ± 4.1 kg/m3 | 1.4359 ± 0.0012 | vapor or sublimation pressure ([1]; 345.65 K): 95.8 ± 9.6 kPa
ClC(Cl)C(Cl)Cl [1,1,2,2-tetrachloroethane] | 1586.7 ± 4.9 kg/m3 | 1.4914 ± 0.0012 | vapor or sublimation pressure ([1]; 417.35 K): 95.8 ± 9.7 kPa; vapor or sublimation pressure ([1]; 417.45 K): 95.8 ± 9.7 kPa
ClCCCl [1,2-dichloroethane] | 1246.4 ± 3.8 kg/m3 | 1.4421 ± 0.0012 | vapor or sublimation pressure ([1]; 355.25 K): 95.8 ± 9.6 kPa
CCC(C)CO (centres undefined) [2-methyl-1-butanol] | 815 ± 2.5 kg/m3 | 1.4084 ± 0.0008 | vapor or sublimation pressure ([1]; 400.35 K): 95.8 ± 9.7 kPa
CC(C)CO [2-methyl-1-propanol] | 798 ± 2 kg/m3 | 1.3939 ± 0.0012 | vapor or sublimation pressure ([1]; 379.65 K): 95.8 ± 19 kPa
CC(C)(C)O [2-methylpropan-2-ol] | 781.2 ± 2.3 kg/m3 | 1.385 ± 0.001 | vapor or sublimation pressure ([1]; 354.15 K): 95.8 ± 9.6 kPa
CCCCO [butan-1-ol] | 805.8 ± 2.4 kg/m3 | 1.3974 ± 0.0012 | vapor or sublimation pressure ([1]; 389.45 K): 95.8 ± 9.6 kPa
CCC(C)O (centres undefined) [butan-2-ol] | 802.4 ± 2.4 kg/m3 | 1.3953 ± 0.0012 | vapor or sublimation pressure ([1]; 371.35 K): 95.8 ± 9.6 kPa
CCC(C)=O [butanone] | 799.7 ± 2.4 kg/m3 | 1.3769 ± 0.0012 | vapor or sublimation pressure ([1]; 350.75 K): 94.6 ± 19 kPa
C1CCCCC1 [cyclohexane] | 773.9 ± 2.3 kg/m3 | 1.4235 ± 0.0012 | vapor or sublimation pressure ([1]; 351.75 K): 94.6 ± 9.5 kPa
CCCCCCC [heptane] | 679.5 ± 2 kg/m3 | 1.3851 ± 0.0012 | vapor or sublimation pressure ([1]; 369.35 K): 94.6 ± 9.5 kPa
ClC(Cl)=C(Cl)Cl [tetrachloroethene] | 1614.3 ± 5 kg/m3 | 1.5032 ± 0.0012 | vapor or sublimation pressure ([1]; 392.25 K): 95.8 ± 9.6 kPa
C1CCOC1 [tetrahydrofuran] | – | – | mass density ([1]; 293.15 K): 889.2 ± 2.7 kg/m3; vapor or sublimation pressure ([1]; 337.15 K): 94.6 ± 9.5 kPa; vapor or sublimation pressure ([1]; 337.55 K): 95.8 ± 9.6 kPa; refractive index ([2]; 293.15 K): 1.4072 ± 0.0012
ClC=C(Cl)Cl [trichloroethene] | – | 1.475 ± 0.001 | mass density ([1]; 303.15 K): 1451.4 ± 4.5 kg/m3; vapor or sublimation pressure ([1]; 357.95 K): 95.8 ± 9.6 kPa
